Results: patent US20260159474A1, “Aminoindane Compounds and Compositions and Methods of Their Therapeutic Use” (Solvonis Therapeutics Ireland Holdings Limited, priority 2021, published 2026)

What was measured:
[1] = system: extracellular dopamine (DA) in the nucleus accumbens (NAcc); test: In vivo microdialysis in rat nucleus accumbens, dopamine; set-up: species or system Sprague Dawley rats; details: 7 mg/kg I.P.
Description: (§1) Methods and Procedure: This study was conducted in compliance with previously described procedures to assure data integrity, adherence to GLP regulations, and standard preclinical study and surgery procedures. The in vivo microdialysis technique was applied to measure the over-time variations of DA, 5-HT, and NE extracellular (EC) concentrations in conscious, freely-moving Sprague Dawley rats. Levels of the neurotransmitters in microdialysis samples were determined using LC-MS/MS analysis. The experiment was also conducted with MDMA for comparative purposes.
(§2) As it relates to cannula implantation, the rats were anesthetized with isoflurane 4% in oxygen (2-2.5 L/min), then the isoflurane concentration 2-2.5% was maintained via a nose cone adapted to the stereotaxic apparatus. The rats were treated with meloxicam (0.2 mg/kg, subcutaneously, sc; Meloxidolor) and amoxicilline (150 mg/kg, sc, Betamox LA). The skull was then shaved and disinfected. Rats were then placed in a stereotaxic apparatus for small animals. One vertical guide cannula was inserted through a 1 mm hole drilled on the exposed skull. Coordinates, with respect to the bregma to target specific brain areas, followed indications from stereotaxic atlas of the rat brain. Specifically a guide cannula (MAB 4.12.IC, Agn Tho's AB, Lidinga, Sweden) was inserted in the NAcc (anteroposterior+1.6; lateral −1.6; dorsoventral −6.0). The guide cannula was then secured with dental cement and 2-4 screws. At the end of the surgery the animal was isolated in a single cage during recovery, for a period of at least one week, during which animal health conditions were checked twice daily and the weight recorded twice a week. Animals continued to be housed singly throughout the experiment. One day before the experiment the cannula stylet was removed and a microdialysis probe with a dialyzing length of 2 mm (MAB 4.12.2 Cu, Agn Tho's AB, Lidingo, Sweden) was inserted. Probes can be re-used 2 times for 2 experimental sessions after appropriate cleaning with fresh milliQ water.
(§3) Post-surgery, the rats were maintained in a heating chamber prior to waking up in order to avoid hypothermia that could be caused by anaesthesia. 5 mL of physiologic solution was subcutaneously administered immediately after surgery, and once/day for 2-3 days, if signs of dehydration are noticed. Meloxicam (Meloxidolor) 0.2 mg/kg was again administered subcutaneously the day after surgery as well as after 48 h after surgery together with Amoxicilline Long Acting (Betamox LA) 150 mg/kg. Health status and body weight was checked every day during the first week.
(§4) The animals were treated with the therapeutic compounds, and MDMA, or their vehicle (saline) according to a Latin square design over 5 separate experimental days (one day/week). The treatments were administered in a volume of 1 mL/kg intraperitoneally.
(§5) On the day of the experiment, each animal was taken into the laboratory in its home cage. Inlet tubing of the probe was attached to a dual quartz-lined two channel liquid swivel mounted on a low mass spring counterbalance arm which, in turn, was connected to a gas-tight syringe on a microinfusion pump. […] An equilibration period of about two hours of perfusion was allowed before collecting samples. Following the equilibration period, 4 basal samples were collected for each experimental animal followed by further 10 post-treatment samples. Samples were collected every 20 minutes (up to 3 hours and 20 minutes post-treatment) by means of a refrigerated auto-sampler (Univentor 820 Microsampler, AgnTho's, Sweden) maintained at +8 “C. At the end of all experimental sessions, 2 μL of 0.1% methylene blue solution was injected through the microdialysis probe, animals were euthanized, and their brains removed to confirm the correct probe-position.
(§6) As mentioned, the concentration of DA, 5-HT and NE in CSF samples were determined using an optimized method based on LC-MS/MS analysis. […]

[2] = system: extracellular noradrenaline (NE) in the nucleus accumbens (NAcc); test: In vivo microdialysis in rat nucleus accumbens, norepinephrine; set-up: species or system Sprague Dawley rats; details: 7 mg/kg I.P.; for time of peak NE level / peak NE level: rat NAcc microdialysis; for peak NE level: baseline = 100%; for Norepinephrine (NE) level (% from baseline): rat NAcc
Description: as §1, §2, §3, §4, §5, §6

Row | SMILES | Dopamine (DA) level (% from baseline) ([1]; 0 min (basal sample)) [%] | Dopamine (DA) level (% from baseline) ([1]; 20 min post-admin) [%] | Dopamine (DA) level (% from baseline) ([1]; 40 min post-admin) [%] | Dopamine (DA) level (% from baseline) ([1]; 60 min post-admin) [%] | Dopamine (DA) level (% from baseline) ([1]; 80 min post-admin) [%] | Dopamine (DA) level (% from baseline) ([1]; 100 min post-admin) [%] | Dopamine (DA) level (% from baseline) ([1]; 120 min post-admin) [%] | Dopamine (DA) level (% from baseline) ([1]; 140 min post-admin) [%] | Dopamine (DA) level (% from baseline) ([1]; 160 min post-admin) [%] | Dopamine (DA) level (% from baseline) ([1]; 180 min post-admin) [%] | Dopamine (DA) level (% from baseline) ([1]; 200 min post-admin) [%] | Dopamine (DA) level (% from baseline) ([1]; −20 min (basal sample)) [%] | time of peak NE level [2] [min] | peak NE level [2] [%] | Norepinephrine (NE) level (% from baseline) ([2]; 0 min (basal sample)) [%] | Norepinephrine (NE) level (% from baseline) ([2]; 20 min post-admin) [%] | Norepinephrine (NE) level (% from baseline) ([2]; 40 min post-admin) [%] | Norepinephrine (NE) level (% from baseline) ([2]; 60 min post-admin) [%] | Norepinephrine (NE) level (% from baseline) ([2]; 80 min post-admin) [%] | Norepinephrine (NE) level (% from baseline) ([2]; 100 min post-admin) [%] | further results
1 | COC(=O)c1ccc2c(c1)CC(N)C2 (stereo not drawn) [CMP-405, 2-aminoindane-5-methylcarboxylate] | 99 | 134 | 122 | 139 | 117 | 123 | 113 | 99 | 98 | 96 | 107 | 101 | 60 | 188 | 101 | 106 | 167 | 188 | 147 | 136 | Norepinephrine (NE) level (% from baseline) ([2]; 120 min post-admin): 125%; Norepinephrine (NE) level (% from baseline) ([2]; 140 min post-admin): 107%; Norepinephrine (NE) level (% from baseline) ([2]; 160 min post-admin): 122%; Norepinephrine (NE) level (% from baseline) ([2]; 180 min post-admin): 105%; Norepinephrine (NE) level (% from baseline) ([2]; 200 min post-admin): 106%; Norepinephrine (NE) level (% from baseline) ([2]; −20 min (basal sample)): 99%
2 | CNC(C)Cc1ccc2c(c1)OCO2 (stereo not drawn) [MDMA] | 93 | 113 | 381 | 520 | 448 | 399 | 396 | 357 | 324 | 293 | 278 | 107 | 40 | 473 | 100 | 113 | 473 | 457 | 375 | 348 | Norepinephrine (NE) level (% from baseline) ([2]; 120 min post-admin): 350%; Norepinephrine (NE) level (% from baseline) ([2]; 140 min post-admin): 320%; Norepinephrine (NE) level (% from baseline) ([2]; 160 min post-admin): 295%; Norepinephrine (NE) level (% from baseline) ([2]; 180 min post-admin): 275%; Norepinephrine (NE) level (% from baseline) ([2]; 200 min post-admin): 255%; Norepinephrine (NE) level (% from baseline) ([2]; −20 min (basal sample)): 100%
3 | COc1ccc2c(c1)CC(N)C2 (stereo not drawn) [MEAI, 5-methoxy-2-aminoindane] | 96 | 95 | 197 | 187 | 154 | 141 | 130 | 131 | 137 | 144 | 127 | 104 | 40 | 366 | 97 | 132 | 366 | 295 | 208 | 194 | Norepinephrine (NE) level (% from baseline) ([2]; 120 min post-admin): 187%; Norepinephrine (NE) level (% from baseline) ([2]; 140 min post-admin): 167%; Norepinephrine (NE) level (% from baseline) ([2]; 160 min post-admin): 140%; Norepinephrine (NE) level (% from baseline) ([2]; 180 min post-admin): 149%; Norepinephrine (NE) level (% from baseline) ([2]; 200 min post-admin): 133%; Norepinephrine (NE) level (% from baseline) ([2]; −20 min (basal sample)): 103%
